Assay results reported in US9426986B2, “Hyperbranched polycarbonates for solubilizing poorly soluble active substances” (BASF SE, priority 2009, dated 2016).
In brackets after ≈: the same amount, converted by molar mass.

Key:
[1] = Solubilization experiments, general procedure 1 (active ingredient content by UV spectroscopy or HPLC); conditions: pH 7, aqueous buffer, thermodynamic from solid
Method: Approximately 2 g of polymer were weighed out into a 50 mL glass beaker. Then 0.2 g of each active ingredient was weighed into the batch to give a supersaturated solution. […] The mixture was then stirred at room temperature for 72 hours, using a magnetic stirrer. After a rest time of one hour, unsolubilized active ingredient was removed by filtration. The resulting clear or opaque solution was then analyzed for its active ingredient content by means of UV spectroscopy or HPLC.

[2] = Method: Approximately 100 mg of polymer were weighed out into a 50 mL glass beaker and dissolved in 9.900 g of distilled water. Then 100 mg of each active ingredient was weighed into the batch to give a supersaturated solution. The mixture was then stirred at room temperature for 24 hours, using a magnetic stirrer. After a rest time of one hour, unsolubilized active ingredient was removed by centrifuging. The resulting clear or opaque solution was then analyzed for its active ingredient content by means of UV spectroscopy.
The solubility was determined as described in procedure 2.

| Molecule | solubility at 72 h [1] [µg/mL] | Solubility of Fipronil in the presence of polymer [2] [µg/mL] |
| --- | --- | --- |
| NC(=O)N1c2ccccc2C=Cc2ccccc21 [Carbamazepine] | 140 (≈ 593 µM) |  |
| Clc1ccccc1C(c1ccccc1)(c1ccccc1)n1ccnc1 [Clotrimazole] | < 100 |  |
| CN1C(C(=O)Nc2ccccn2)=C(O)c2ccccc2S1(=O)=O [Piroxicam] | 420 (≈ 1270 µM) |  |
| polyethylene glycol monomethyl ether [PEG monomethyl ether] |  | 6 |
